Experimental data published in EP4563146A1 (IRBM S.P.A., priority 2023, dated 2025).
Where two headings read alike, the source gives them in different places.

Test system: ZIKV replicon
Experiment: ZIKV replication inhibition assay (NanoLuc replicon in Vero cells)
Settings: Zika virus, Vero, 72 h
[1] = read-out: ZIKA Cell_Nanoluc, Vero cells with stable ZIKV replicon, 72 h, Nano-Glo readout

Row | Compound | EC50 (read-out: ZIKA Cell_Nanoluc) [µM] | EC50 [1] [µM]
1 | O=C(Cc1ccccc1)Nc1cc(NC(=O)[N-]c2c[n+](CC3CCNCC3)no2)cc(C(F)(F)F)c1 [Example 120] | > 20 | –
2 | O=C(CC1(N2CCCC2)COC1)Nc1cc(NC(=O)[N-]c2c[n+](Cc3ccccn3)no2)cc(C(F)(F)F)c1 [Example 86, (3-(Pyridin-2-ylmethyl)-1,2,3-oxadiazol-3-ium-5-yl)((3-(2-(3-(pyrrolidin-1-yl)oxetan-3-yl)acetamido)-5-(trifluoromethyl)phenyl)carbamoyl)amide] | – | 1 to 20
3 | O=C([N-]c1c[n+](Cc2ccccn2)no1)Nc1cc(NC(=O)c2cc3n(n2)CCS(=O)(=O)C3)cc(C(F)(F)F)c1 [Example 64] | > 20 | –
4 | CC(c1ccc(C(=O)Nc2cc(NC(=O)[N-]c3c[n+](Cc4ccccn4)no3)cc(C(F)(F)F)c2)cc1)S(N)(=O)=O (stereo not drawn) [Example 78, (3-(Pyridin-2-ylmethyl)-1,2,3-oxadiazol-3-ium-5-yl)((3-(4-(1-sulfamoylethyl)-benzamido)-5-(trifluoromethyl)phenyl)carbamoyl)amide] | – | > 20
5 | O=C([N-]c1c[n+](Cc2ccccn2)no1)Nc1cc(NC(=O)c2ccc3c(n2)CCO3)cc(C(F)(F)F)c1 [Example 79] | 1 to 20 | –
6 | NCc1ccc(C[n+]2cc([N-]C(=O)Nc3cc(NC(=O)Cc4ccccc4)cc(C(F)(F)F)c3)on2)cc1 [Example 56, (3-(4-(Aminomethyl)benzyl)-1,2,3-oxadiazol-3-ium-5-yl)((3-(2-phenylacetamido)-5-(trifluoromethyl)phenyl)carbamoyl)amide] | – | 1 to 20
7 | O=C([N-]c1c[n+](Cc2ccccn2)no1)Nc1cc(NC(=O)C23CC(C(=O)O)(C2)C3)cc(C(F)(F)F)c1 [Example 52, ((3-(3-Carboxybicyclo[1.1.1]pentane-1-carboxamido)-5-(trifluoromethyl)phenyl)-carbamoyl)(3-(pyridin-2-ylmethyl)-1,2,3-oxadiazol-3-ium-5-yl)amide] | – | 1 to 20
8 | O=C(Cc1c[nH]c2cccnc12)Nc1cc(NC(=O)[N-]c2c[n+](Cc3ccccn3)no2)cc(C(F)(F)F)c1 [Example 36] | 1 to 20 | –
9 | COc1ncc(-c2ccc(C[n+]3cc([N-]C(=O)Nc4cc(NC(=O)CCc5ccccc5)cc(C(F)(F)F)c4)on3)cc2)c(C)n1 [Example 9, (3-(4-(2-Methoxy-4-methylpyrimidin-5-yl)benzyl)-1,2,3-oxadiazol-3-ium-5-yl)((3-(3-phenylpropanamido)-5-(trifluoromethyl)phenyl)carbamoyl)amide] | – | 0.1 to 1
10 | Cc1oc(-c2ccccc2)nc1CC(=O)Nc1cc(NC(=O)[N-]c2c[n+](Cc3ccccn3)no2)cc(C(F)(F)F)c1 [Example 33] | 1 to 20 | –
11 | NC1C2COCC1CC([n+]1cc([N-]C(=O)Nc3cc(NC(=O)Cc4ccccc4)cc(C(F)(F)F)c3)on1)C2 (stereo not drawn) [Example 112, (3-(9-Amino-3-oxabicyclo[3.3.1]nonan-7-yl)-1,2,3-oxadiazol-3-ium-5-yl)((3-(2-phenylacetamido)-5-(trifluoromethyl)phenyl)carbamoyl)amide] | – | > 20
12 | O=C(Cc1ccccc1)Nc1cc(NC(=O)[N-]c2c[n+](Cc3ccccn3)no2)cc(C2CC2)c1 [Example 89, ((3-Cyclopropyl-5-(2-phenylacetamido)phenyl)carbamoyl)(3-(pyridin-2-ylmethyl)-1,2,3-oxadiazol-3-ium-5-yl)amide] | – | 1 to 20
13 | O=C([N-]c1c[n+](Cc2ccccn2)no1)Nc1cc(NC(=O)C23CCC(O)(CC2)C3)cc(C(F)(F)F)c1 [Example 66] | > 20 | –
14 | C[n+]1cc([N-]C(=O)Nc2cc(NC(=O)Cc3ccccc3)cc(C(F)(F)F)c2)on1 [Example 4, (3-Methyl-1,2,3-oxadiazol-3-ium-5-yl)((3-(2-phenylacetamido)-5-(trifluoromethyl)phenyl)carbamoyl)amide] | – | 1 to 20
15 | O=C([N-]c1c[n+](Cc2ccccn2)no1)Nc1cc(NC(=O)c2[nH]cc3c2CCC3)cc(C(F)(F)F)c1 [Example 87, (3-(Pyridin-2-ylmethyl)-1,2,3-oxadiazol-3-ium-5-yl)((3-(2,4,5,6-tetrahydrocyclopenta[c]pyrrole-1-carboxamido)-5-(trifluoromethyl)phenyl)-carbamoyl)amide] | – | > 20
